In patent US20080139458A1, “Methods of Treatment For Injured or Diseased Joints” (priority 2004, published 2008):
Where “and” joins values, the source holds several entries; their conditions need not be identical. Equal entries are not always repeated. Where two headings read alike, the source gives them in different places. Peptide text beside a SMILES is read from it. * marks the point of attachment. Cbz = O=C(OCc1ccccc1)*; CH2F = FC*

Tests used:
[1] = tested on: pooled knee joint synovitis (KJS) synovial fluid (SF) aspirates supplemented with purified human lubricin; type: biochemical; details: for Change in coefficient of friction Δμ ± S.D.: 37° C., E-64 10 μM, Z-LLL-FMK 20 μM, PMSF 25 μM, EDTA 10 mM, Lubricin = no inhibitor; for Lubricating ability compared to controls without enzyme inhibitors: KJS SF at 24, 48, and 96 hours, P<0.001
Method: (§1) The boundary lubricating abilities of protease-treated human lubricin and BSF were measured using a friction apparatus as reported by Davis et al., J. Biomech. Eng. 101:185-192, 1979. Lubricant (200 μL) was applied between a bearing of latex and a ring of polished glass with a contact area of 1.59 cm^2. The latex was oscillated, under a pressure of 0.35×10^6 N/m^2, against the polished glass with an entraining velocity of 0.37 mm/sec. The bearing system was axially loaded within a gimbals system free to rotate around two perpendicular horizontal axes. The friction apparatus recorded displacements of the gimbals system around the vertical loading axis through a linear displacement voltage transducer, where the output was directly proportional to the frictional torque (F). A bearing load of 70 newtons (N) was related to the coefficient of friction (μ) via Amonton's law, F=μN.
(§2) The μ of the lubricant was recorded at room temperature and was preceded by a baseline measurement of μ with normal saline (NS). Lubrication was manifested by a reduction in μ by the lubricant relative to that of NS. Negative Δμ (−Δμ) values indicate lubrication whereas positive Δμ (+Δμ) indicate friction. Addition of 200 μL of lubricant was followed by bringing the bearing surfaces close enough so that the solution wet both surfaces. After 5 min for equilibration, the latex-coated bearing was brought to rest on the glass as it was oscillating. Voltage measurements were recorded at 1, 3, and 5 min. After 5 min, the surfaces were separated for 2 min and then brought back together for three additional 5 min session. The 3 and 5 min μ values of the last two 5 min session were recorded and averaged, and data were later combined with another duplicate experiment providing 8 distinct measurements of μ.
(§3) The SF aspirates from patients diagnosed with a Noyes criteria grade III or IV OA (n=60), with RA (n=20), or with KJS (n=23) were pooled in equal proportions. […] The lubricin-supplemented pooled OA, RA, and KJS SF aspirates were treated at 37° C. and sampled after 24, 48, and 96 hours. The friction analysis of the sampled SF was conducted as described above. Normal human SF was obtained from cartilage allograft donors and was utilized as a control.
(§4) The treatments were performed at 37° C., and SF was sampled at 24, 48, and 96 hours post-treatment. The in vitro friction assay of sampled SF was performed as described above.

[2] = tested on: pooled rheumatoid arthritis (RA) synovial fluid (SF) aspirates supplemented with purified human lubricin; type: biochemical; details: for Change in coefficient of friction Δμ ± S.D.: 37° C., E-64 10 μM, Z-LLL-FMK 20 μM, PMSF 25 μM, EDTA 10 mM, Lubricin = no inhibitor
Method: as §1, §2, §3, §4

[3] = at 24, 48, and 96 hours, P<0.001

## CC(C)C[C@H](NC(=O)[C@H]1O[C@@H]1C(=O)O)C(=O)NCCCCN=C(N)N (relative stereo) [E-64, L-trans-epoxysuccinyl-leucyl-amido-(4-guanidino)-butane]
[1]; 0 hrs
  Change in coefficient of friction Δμ ± S.D.: −0.059 ± 0.004
[1]; 24 hrs
  Change in coefficient of friction Δμ ± S.D.: −0.042 ± 0.005
[1]; 48 hrs
  Change in coefficient of friction Δμ ± S.D.: −0.039 ± 0.007
[1]; 96 hrs
  Change in coefficient of friction Δμ ± S.D.: −0.034 ± 0.002
[1]
  Lubricating ability compared to controls without enzyme inhibitors: preserved lubricating ability
[1]; at 24 hours, KJS SF
  average increase in Δμ: 32.7%
[1]; at 48 hours, KJS SF
  average increase in Δμ: 38.5%
[1]; at 96 hours, KJS SF
  average increase in Δμ: 42.4%
[2]; 0 hrs
  Change in coefficient of friction Δμ ± S.D.: −0.060 ± 0.002
[2]; 24 hrs
  Change in coefficient of friction Δμ ± S.D.: −0.053 ± 0.004
[2]; 48 hrs
  Change in coefficient of friction Δμ ± S.D.: −0.024 ± 0.002
[2]; 96 hrs
  Change in coefficient of friction Δμ ± S.D.: −0.014 ± 0.004
[2]; [3]
  Δμ compared to lubricin-supplemented pooled RA SF aspirates: significant decrease in Δμ
[2]; at 24 hours, RA SF
  average increase in Δμ: 11.7%
[2]; at 48 hours, RA SF
  average increase in Δμ: 60.0%
[2]; at 96 hours, RA SF
  average increase in Δμ: 76.7%

## CC(C)C[C@H](NC(=O)[C@H](CC(C)C)NC(=O)[C@H](CC(C)C)NC(=O)OCc1ccccc1)C(=O)CF [Z-LLL-FMK, Z-Leu-Leu-Leu-fluoromethyl ketone] (Cbz-Leu-Leu-Leu-CH2F)
[1]; 0 hrs
  Change in coefficient of friction Δμ ± S.D.: −0.060 ± 0.002
[1]; 24 hrs
  Change in coefficient of friction Δμ ± S.D.: −0.035 ± 0.002
[1]; 48 hrs
  Change in coefficient of friction Δμ ± S.D.: −0.031 ± 0.003
[1]; 96 hrs
  Change in coefficient of friction Δμ ± S.D.: −0.028 ± 0.002
[1]
  Lubricating ability compared to controls without enzyme inhibitors: preserved lubricating ability
[1]; at 24 hours, KJS SF
  average increase in Δμ: 41.7%
[1]; at 48 hours, KJS SF
  average increase in Δμ: 48.3%
[1]; at 96 hours, KJS SF
  average increase in Δμ: 53.3%
[2]; 0 hrs
  Change in coefficient of friction Δμ ± S.D.: −0.060 ± 0.002
[2]; 24 hrs
  Change in coefficient of friction Δμ ± S.D.: −0.049 ± 0.002
[2]; 48 hrs
  Change in coefficient of friction Δμ ± S.D.: −0.019 ± 0.001
[2]; 96 hrs
  Change in coefficient of friction Δμ ± S.D.: −0.005 ± 0.003
[2]; [3]
  Δμ compared to lubricin-supplemented pooled RA SF aspirates: significant decrease in Δμ
[2]; at 24 hours, RA SF
  average increase in Δμ: 18.3%
[2]; at 48 hours, RA SF
  average increase in Δμ: 68.3%
[2]; at 96 hours, RA SF
  average increase in Δμ: 91.7%

## O=C(O)CN(CCN(CC(=O)O)CC(=O)O)CC(=O)O [EDTA]
[1]
  average increase in Δμ: 50.0% and 80.0% and 85.0%
  Δμ compared to lubricin-supplemented pooled KJS SF aspirates: significant (P<0.01) decrease in Δμ
[2]
  average increase in Δμ: 90.0% and 88.3% and 128.3%
  Δμ compared to lubricin-supplemented pooled RA SF aspirates: significant decrease in Δμ

## O=S(=O)(F)Cc1ccccc1 [PMSF, phenylmethanesulfonyl fluoride]
[1]; 0 hrs
  Change in coefficient of friction Δμ ± S.D.: −0.060 ± 0.001
[1]; 24 hrs
  Change in coefficient of friction Δμ ± S.D.: −0.033 ± 0.006
[1]; 48 hrs
  Change in coefficient of friction Δμ ± S.D.: −0.030 ± 0.005
[1]; 96 hrs
  Change in coefficient of friction Δμ ± S.D.: −0.027 ± 0.005
[1]
  Lubricating ability compared to controls without enzyme inhibitors: preserved lubricating ability
[1]; at 24 hours, KJS SF
  average increase in Δμ: 45.0%
[1]; at 48 hours, KJS SF
  average increase in Δμ: 50.0%
[1]; at 96 hours, KJS SF
  average increase in Δμ: 55.0%
[2]; 0 hrs
  Change in coefficient of friction Δμ ± S.D.: −0.060 ± 0.002
[2]; 24 hrs
  Change in coefficient of friction Δμ ± S.D.: −0.009 ± 0.009
[2]; 48 hrs
  Change in coefficient of friction Δμ ± S.D.: −0.008 ± 0.004
[2]; 96 hrs
  Change in coefficient of friction Δμ ± S.D.: −0.009 ± 0.001
[2]; [3]
  Δμ compared to lubricin-supplemented pooled RA SF aspirates: significant decrease in Δμ
[2]; at 24 hours, RA SF
  average increase in Δμ: 85.0%
[2]; at 48 hours, RA SF
  average increase in Δμ: 86.3%
[2]; at 96 hours, RA SF
  average increase in Δμ: 85.0%
